For series [1], the target named is T1, recombinant human GST-SYK (Homo sapiens, UniProt P43405).
T1 construct: purchased Carna Biosciences 08-176
Put plainly: Homogeneous Time-Resolved Fluorescence (HTRF) assay for the recombinant human Syk enzyme. Format: biochemical. As to conditions: GST-hSYK 5 pM, ATP 25 μM, 10-dose titration 10 μM to 0.508 nM; read-out: rhSYK Activity (IC50 rating). The gist of the method: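 GST-hSYK fusion phosphorylates a peptide for 45 min at room temperature. Quenched with EDTA buffer containing 2 nM Eu-anti-phosphotyrosine antibody and 70 nM SA-APC. HTRF signal read after 30 min.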
In general terms: Time-resolved FRET reads energy transfer from a long-lived donor to a nearby acceptor.

The conditions of series [2]: phase II clinical trial, allergic rhinitis; cited from earlier work.
For series [3], the system named is PGD2. As to conditions: dosed intranasally, phase I/II, allergic rhinitis; cited from earlier work.

pIC50: −log10 of the molar value.

Results on eight compounds are retold here after US9216173B2, “2-Pyridyl carboxamide-containing spleen tyrosine kinase (SYK) inhibitors” (Merck Sharp & Dohme Corp., priority 2011, dated 2015).

Broadly, the pIC50 is the negative decadic logarithm of the IC50, by convention in mol/L. On to `CCc1cccc(Nc2cc(N[C@@H]3CCCC[C@@H]3N)cnc2C(N)=O)n1` [Example 13, 5-{[(1R,2S)-2-aminocyclohexyl]amino}-3-[(6-ethylpyridin-2-yl)amino]pyridine-2-carboxamide], for which the pIC50 in series [1] was over 8.00.

With `Cc1cc(C)nc(Nc2cc(NCCCN)cnc2C(N)=O)c1` [Example 14, 5-[(3-aminopropyl)amino]-3-[(4,6-dimethylpyridin-2-yl)amino]pyridine-2-carboxamide], in series [1], the pIC50 is 7.00 to 8.00.

Take `CCNC(=O)Nc1cnc(C(N)=O)c(Nc2cc(C)cc(C)n2)c1` [Example 15, 3-[(4,6-dimethylpyridin-2-yl)amino]-5-[(ethylcarbamoyl)amino]pyridine-2-carboxamide]: in series [1], the pIC50 is 6.00 to 7.00.

Regarding `Cc1nc(Nc2cc(N[C@@H]3CCCC[C@@H]3N)cnc2C(N)=O)ccc1C(=O)O` [Example 16, 6-[(5-{[(1R,2S)-2-aminocyclohexyl]amino}-2-carbamoylpyridin-3-yl)amino]-2-methylpyridine-3-carboxylic acid], the negative logarithm of the IC50 (pIC50) in series [1] is over 8.00.

With `Cc1nc(Nc2cc(N[C@@H]3CCCC[C@@H]3N)cnc2C(N)=O)ccc1C(=O)N(C)C` [Example 17, 5-{[(1R,2S)-2-aminocyclohexyl]amino}-3-{[5-(dimethylcarbamoyl)-6-methylpyridin-2-yl]amino}pyridine-2-carboxamide], the negative-log IC50 (pIC50) in series [1] was 7.00 to 8.00.

For the compound `CC1=CCCc2nc(Nc3cc(N[C@@H]4CCCC[C@@H]4N)cnc3C(N)=O)ccc21` [Example 18, 5-{[(1R,2S)-2-aminocyclohexyl]amino}-3-[(5-methyl-7,8-dihydroquinolin-2-yl)amino]pyridine-2-carboxamide], in series [1], the negative logarithm of the IC50 (pIC50) was over 8.00.

Consider `Cc1cc(C)nc(Nc2cc(NS(=O)(=O)CCN)cnc2C(N)=O)c1` [Example 19, 5-{[(2-aminoethyl)sulfonyl]amino}-3-[(4,6-dimethylpyridin-2-yl)amino]pyridine-2-carboxamide], for which, in series [1], the negative-log IC50 (pIC50) is 6.00 to 7.00.

Turning to `Oc1cccc(Nc2ncc(F)c(Nc3cccc(O)c3)n2)c1` [Example R112], the efficacy versus placebo result in series [2] was “lack of efficacy”. Moreover, in series [3], the PGD2 level entry is “statistically significant decrease” and the clinical safety entry was “safe across a range of indicators”.
